# From patent US8802895B2, “Amide derivatives of benzene-sulfonanilide, pharmaceutical composition thereof and method for cancer treatment using the same” (Cleveland State University, priority 2010, dated 2014)
# Columns and labels:
# Format in all cases: cell-based
# [1] = tested on: UACC-257; assay: NCIDTP 60 cancer cell lines screening, Melanoma panel
# [2] = tested on: NCI-H460; assay: NCIDTP 60 cancer cell lines screening, Non-Small Cell Lung Cancer panel
# [3] = tested on: SW-620; assay: NCIDTP 60 cancer cell lines screening, Colon Cancer panel
# [4] = tested on: UACC-62; assay: NCIDTP 60 cancer cell lines screening, Melanoma panel
# [5] = tested on: BT-549; assay: NCIDTP 60 cancer cell lines screening, Breast Cancer panel
# [6] = tested on: LOX IMVI; assay: NCIDTP 60 cancer cell lines screening, Melanoma panel
# [7] = tested on: OVCAR-5; assay: NCIDTP 60 cancer cell lines screening, Ovarian Cancer panel
# [8] = tested on: DU-145; assay: NCIDTP 60 cancer cell lines screening, Prostate Cancer panel
# [9] = tested on: A549/ATCC; assay: NCIDTP 60 cancer cell lines screening, Non-Small Cell Lung Cancer panel
# [10] = tested on: NCI-H322M; assay: as above
# [11] = tested on: OVCAR-3; assay: NCIDTP 60 cancer cell lines screening, Ovarian Cancer panel
# [12] = tested on: SK-MEL-2; assay: NCIDTP 60 cancer cell lines screening, Melanoma panel
# [13] = tested on: KM12; assay: NCIDTP 60 cancer cell lines screening, Colon Cancer panel
# [14] = tested on: PC-3; assay: NCIDTP 60 cancer cell lines screening, Prostate Cancer panel
# [15] = tested on: NCI-H226; assay: NCIDTP 60 cancer cell lines screening, Non-Small Cell Lung Cancer panel
# [16] = tested on: HS 578T; assay: NCIDTP 60 cancer cell lines screening, Breast Cancer panel
# [17] = tested on: cells; assay: Primary mechanism study: cell viability with compound #10 and 2-APB (FIG. 10); details: with and without 2-APB; cell viability after 48 hours
# Experimental: For the experiment, 2-APB was first added. […] The control cells were treated with same amount of DMSO to carry the drugs. The cell viability was evaluated after 48 hours.
# [18] = tested on: EKVX; assay: NCIDTP 60 cancer cell lines screening, Non-Small Cell Lung Cancer panel
compound,measurement,setting,value
"Cc1ccc(C)c(COc2cc(NC(=O)c3ccc4c(c3)OCO4)ccc2N(C)S(C)(=O)=O)c1 [Compound #10, Benzo[1,3]dioxole-5-carboxylic acid [3-(2,5-dimethyl-benzyloxy)-4-(methanesulfonyl-methyl-amino)-phenyl]-amide]",GI50,"[1]; Homo sapiens, UACC-257",144 nM
same,CC50,"[1]; Homo sapiens, UACC-257, read-out: LC50",> 100000 nM
same,TGI,[1]; UACC-257,>1.00E−4 Molar
same,Percent Growth,"[1]; UACC-257, Log10 Concentration −4.0 Molar",13%
same,Percent Growth,"[1]; UACC-257, Log10 Concentration −5.0 Molar",29%
same,Percent Growth,"[1]; UACC-257, Log10 Concentration −6.0 Molar",32%
same,Percent Growth,"[1]; UACC-257, Log10 Concentration −7.0 Molar",53%
same,Percent Growth,"[1]; UACC-257, Log10 Concentration −8.0 Molar",88%
same,GI50,"[2]; Homo sapiens, NCI-H460",184 nM
same,CC50,"[2]; Homo sapiens, NCI-H460, read-out: LC50",> 100000 nM
same,TGI,[2]; NCI-H460,7.44E−7 Molar
same,Percent Growth,"[2]; NCI-H460, Log10 Concentration −4.0 Molar",−24%
same,Percent Growth,"[2]; NCI-H460, Log10 Concentration −5.0 Molar",−10%
same,Percent Growth,"[2]; NCI-H460, Log10 Concentration −6.0 Molar",−11%
same,Percent Growth,"[2]; NCI-H460, Log10 Concentration −7.0 Molar",72%
same,Percent Growth,"[2]; NCI-H460, Log10 Concentration −8.0 Molar",95%
same,GI50,"[3]; Homo sapiens, SW-620",112 nM
same,CC50,"[3]; Homo sapiens, SW-620, read-out: LC50",> 100000 nM
same,TGI,[3]; SW-620,>1.00E−4 Molar
same,Percent Growth,"[3]; SW-620, Log10 Concentration −4.0 Molar",16%
same,Percent Growth,"[3]; SW-620, Log10 Concentration −5.0 Molar",21%
same,Percent Growth,"[3]; SW-620, Log10 Concentration −6.0 Molar",19%
same,Percent Growth,"[3]; SW-620, Log10 Concentration −7.0 Molar",52%
same,Percent Growth,"[3]; SW-620, Log10 Concentration −8.0 Molar",92%
same,GI50,"[4]; Homo sapiens, UACC-62",414 nM
same,CC50,"[4]; Homo sapiens, UACC-62, read-out: LC50",> 100000 nM
same,TGI,[4]; UACC-62,>1.00E−4 Molar
same,Percent Growth,"[4]; UACC-62, Log10 Concentration −4.0 Molar",14%
same,Percent Growth,"[4]; UACC-62, Log10 Concentration −5.0 Molar",15%
same,Percent Growth,"[4]; UACC-62, Log10 Concentration −6.0 Molar",37%
same,Percent Growth,"[4]; UACC-62, Log10 Concentration −7.0 Molar",71%
same,Percent Growth,"[4]; UACC-62, Log10 Concentration −8.0 Molar",94%
same,TGI,[5]; BT-549,>1.00E−4 Molar
same,Percent Growth,"[5]; BT-549, Log10 Concentration −4.0 Molar",21%
same,Percent Growth,"[5]; BT-549, Log10 Concentration −5.0 Molar",13%
same,Percent Growth,"[5]; BT-549, Log10 Concentration −6.0 Molar",45%
same,Percent Growth,"[5]; BT-549, Log10 Concentration −7.0 Molar",70%
same,Percent Growth,"[5]; BT-549, Log10 Concentration −8.0 Molar",92%
same,GI50,"[5]; Homo sapiens, BT-549",656 nM
same,CC50,"[5]; Homo sapiens, BT-549, read-out: LC50",> 100000 nM
same,TGI,[6],>1.00E−4 Molar
same,GI50,[6]; Homo sapiens,66.6 nM
same,CC50,"[6]; Homo sapiens, read-out: LC50",> 100000 nM
same,Percent Growth,[6]; Log10 Concentration −4.0 Molar,26%
same,Percent Growth,[6]; Log10 Concentration −5.0 Molar,21%
same,Percent Growth,[6]; Log10 Concentration −6.0 Molar,13%
same,Percent Growth,[6]; Log10 Concentration −7.0 Molar,41%
same,Percent Growth,[6]; Log10 Concentration −8.0 Molar,91%
same,GI50,"[7]; Homo sapiens, OVCAR-5",538 nM
same,CC50,"[7]; Homo sapiens, OVCAR-5, read-out: LC50",> 100000 nM
same,TGI,[7]; OVCAR-5,>1.00E−4 Molar
same,Percent Growth,"[7]; OVCAR-5, Log10 Concentration −4.0 Molar",25%
same,Percent Growth,"[7]; OVCAR-5, Log10 Concentration −5.0 Molar",33%
same,Percent Growth,"[7]; OVCAR-5, Log10 Concentration −6.0 Molar",37%
same,Percent Growth,"[7]; OVCAR-5, Log10 Concentration −7.0 Molar",85%
same,Percent Growth,"[7]; OVCAR-5, Log10 Concentration −8.0 Molar",85%
same,TGI,[8]; DU-145,4.57E−7 Molar
same,Percent Growth,"[8]; DU-145, Log10 Concentration −4.0 Molar",−28%
same,Percent Growth,"[8]; DU-145, Log10 Concentration −5.0 Molar",−39%
same,Percent Growth,"[8]; DU-145, Log10 Concentration −6.0 Molar",−37%
same,Percent Growth,"[8]; DU-145, Log10 Concentration −7.0 Molar",72%
same,Percent Growth,"[8]; DU-145, Log10 Concentration −8.0 Molar",96%
same,GI50,"[8]; Homo sapiens, DU-145",159 nM
same,CC50,"[8]; Homo sapiens, DU-145, read-out: LC50",> 100000 nM
same,TGI,[9]; A549/ATCC,1.36E−5 Molar
same,Percent Growth,"[9]; A549/ATCC, Log10 Concentration −4.0 Molar",−29%
same,Percent Growth,"[9]; A549/ATCC, Log10 Concentration −5.0 Molar",5%
same,Percent Growth,"[9]; A549/ATCC, Log10 Concentration −6.0 Molar",12%
same,Percent Growth,"[9]; A549/ATCC, Log10 Concentration −7.0 Molar",80%
same,Percent Growth,"[9]; A549/ATCC, Log10 Concentration −8.0 Molar",97%
same,CC50,"[9]; Homo sapiens, A549, read-out: LC50",> 100000 nM
same,GI50,"[9]; Homo sapiens, A549/ATCC",278 nM
same,TGI,[10],>1.00E−4 Molar
same,GI50,[10]; Homo sapiens,468 nM
same,CC50,"[10]; Homo sapiens, read-out: LC50",> 100000 nM
same,Percent Growth,[10]; Log10 Concentration −4.0 Molar,28%
same,Percent Growth,[10]; Log10 Concentration −5.0 Molar,26%
same,Percent Growth,[10]; Log10 Concentration −6.0 Molar,30%
same,Percent Growth,[10]; Log10 Concentration −7.0 Molar,91%
same,Percent Growth,[10]; Log10 Concentration −8.0 Molar,94%
same,TGI,[11],1.66E−7 Molar
same,GI50,[11]; Homo sapiens,39.6 nM
same,Percent Growth,[11]; Log10 Concentration −4.0 Molar,−32%
same,Percent Growth,[11]; Log10 Concentration −5.0 Molar,−44%
same,Percent Growth,[11]; Log10 Concentration −6.0 Molar,−67%
same,Percent Growth,[11]; Log10 Concentration −7.0 Molar,19%
same,Percent Growth,[11]; Log10 Concentration −8.0 Molar,96%
same,GI50,"[12]; Homo sapiens, SK-MEL-2",89.7 nM
same,CC50,"[12]; Homo sapiens, SK-MEL-2, read-out: LC50",> 100000 nM
same,TGI,[12]; SK-MEL-2,6.16E−7 Molar
same,Percent Growth,"[12]; SK-MEL-2, Log10 Concentration −4.0 Molar",−18%
same,Percent Growth,"[12]; SK-MEL-2, Log10 Concentration −5.0 Molar",−12%
same,Percent Growth,"[12]; SK-MEL-2, Log10 Concentration −6.0 Molar",−13%
same,Percent Growth,"[12]; SK-MEL-2, Log10 Concentration −7.0 Molar",48%
same,Percent Growth,"[12]; SK-MEL-2, Log10 Concentration −8.0 Molar",99%
same,GI50,"[13]; Homo sapiens, KM12",85.5 nM
same,CC50,"[13]; Homo sapiens, KM12, read-out: LC50",> 100000 nM
same,TGI,[13]; KM12,1.13E−6 Molar
same,Percent Growth,"[13]; KM12, Log10 Concentration −4.0 Molar",−29%
same,Percent Growth,"[13]; KM12, Log10 Concentration −5.0 Molar",−19%
same,Percent Growth,"[13]; KM12, Log10 Concentration −6.0 Molar",1%
same,Percent Growth,"[13]; KM12, Log10 Concentration −7.0 Molar",47%
same,Percent Growth,"[13]; KM12, Log10 Concentration −8.0 Molar",93%
same,GI50,"[14]; Homo sapiens, PC-3",67.7 nM
same,CC50,"[14]; Homo sapiens, PC-3, read-out: LC50",> 100000 nM
same,TGI,[14]; PC-3,>1.00E−4 Molar
same,Percent Growth,"[14]; PC-3, Log10 Concentration −4.0 Molar",21%
same,Percent Growth,"[14]; PC-3, Log10 Concentration −5.0 Molar",20%
same,Percent Growth,"[14]; PC-3, Log10 Concentration −6.0 Molar",21%
same,Percent Growth,"[14]; PC-3, Log10 Concentration −7.0 Molar",41%
same,Percent Growth,"[14]; PC-3, Log10 Concentration −8.0 Molar",92%
same,GI50,"[15]; Homo sapiens, NCI-H226",686 nM
same,CC50,"[15]; Homo sapiens, NCI-H226, read-out: LC50",> 100000 nM
same,TGI,[15]; NCI-H226,>1.00E−4 Molar
same,Percent Growth,"[15]; NCI-H226, Log10 Concentration −4.0 Molar",16%
same,Percent Growth,"[15]; NCI-H226, Log10 Concentration −5.0 Molar",20%
same,Percent Growth,"[15]; NCI-H226, Log10 Concentration −6.0 Molar",42%
same,Percent Growth,"[15]; NCI-H226, Log10 Concentration −7.0 Molar",93%
same,Percent Growth,"[15]; NCI-H226, Log10 Concentration −8.0 Molar",87%
same,Percent Growth,"[16]; HS 578T, Log10 Concentration −4.0 Molar",3%
same,Percent Growth,"[16]; HS 578T, Log10 Concentration −5.0 Molar",−9%
same,Percent Growth,"[16]; HS 578T, Log10 Concentration −6.0 Molar",−5%
same,Percent Growth,"[16]; HS 578T, Log10 Concentration −7.0 Molar",47%
same,Percent Growth,"[16]; HS 578T, Log10 Concentration −8.0 Molar",90%
same,CC50,"[16]; Homo sapiens, Hs-578T, read-out: LC50",> 100000 nM
same,GI50,"[16]; Homo sapiens, HS 578T",87 nM
same,"cell death / cell viability, relation with calcium signal",[17],induces cell death that is at least partially related with calcium signal in the cells
same,TGI,[18],>1.00E−4 Molar
same,GI50,[18]; Homo sapiens,598 nM
same,CC50,"[18]; Homo sapiens, read-out: LC50",> 100000 nM
same,Percent Growth,[18]; Log10 Concentration −4.0 Molar,33%
same,Percent Growth,[18]; Log10 Concentration −5.0 Molar,25%
same,Percent Growth,[18]; Log10 Concentration −6.0 Molar,39%
same,Percent Growth,[18]; Log10 Concentration −7.0 Molar,88%
same,Percent Growth,[18]; Log10 Concentration −8.0 Molar,94%
